In patent publication US20240308998A1, “PYRROLOPYRIDONE DERIVATIVES USEFUL IN THE TREATMENT OF CANCER” (Tay Therapeutics Limited, priority 2021, published 2024):
Where a name gives a salt, the structure may show the parent alone.

Assays:
BRD4 BD1 = target: T1, BRD4 BD1 (Homo sapiens, UniProt O60885); assay: NanoBRET bromodomain assay, BRD4 BD1; type: cell-based; settings: HEK293 cells transfected with NanoLuc-BRD4-BD1
T1 construct: HEK293 cells were transfected using NanoLuc-BRD4-BD1 or NanoLuc-BRD4-BD2 fusion vectors; host or cells: HEK293
Method: (§1) HEK293 cells were transfected using NanoLuc-BRD4-BD1 or NanoLuc-BRD4-BD2 fusion vectors and incubated at 37° C. in an atmosphere of 5% CO2 for 20-24 hours. The transfected cells were then dispensed into 96-well plates using 90 μl cell suspension per well containing 2×10^5 cells/ml in Opti-MEM and 1x final concentration of tracer. 90 μl per well of cell suspension without tracer was also dispensed into at least 3 wells as “No tracer control samples” for background correction. Serially diluted test compounds were prepared at 1000× concentration in DMSO and further diluted to 10× concentration in Opti-MEM. 10 μl per well of the serially diluted 10× test compound was added to the 96-well plates containing cells with 1x tracer. Plates were then incubated at 37° C.+5% C02 incubator for 2 hours. Immediately prior to BRET measurements, a 3x solution consisting of 1:166 dilution of Nano-Glo® Substrate plus a 1:500 dilution of Extracellular NanoLuc Inhibitor in Opti-MEM was prepared and 50 μl per well was added to the cells. Donor emission (450 nm) and acceptor emission (610 nm) were measured using PHERAstar (BMG LabTech). For data analysis, the raw BRET ratio was generated and converted to milliBRET units with background correction using the formula: [(Acceptorsample/Donorsample)−(Acceptorno tracer control/Donorno tracer control)]×1000. The mBU data was plotted as a function of compound concentration and IC50s for BRET assay were determined by nonlinear regression analysis of concentration response curves using the GraphPad Prism software.

BRD4 BD2 = target: T2, BRD4 BD2 (Homo sapiens, UniProt O60885); assay: NanoBRET bromodomain assay, BRD4 BD2; type: cell-based; settings: for Fold selectivity BRD4 BD1/BD2: IC50 BD1/IC50 BD2; for IC50: NanoBRET, HEK293 cells transfected with NanoLuc-BRD4-BD2
T2 construct: HEK293 cells were transfected using NanoLuc-BRD4-BD1 or NanoLuc-BRD4-BD2 fusion vectors; host or cells: HEK293
Method: as §1
Fold Selectivity Calculated (IC50 BD1/IC50 BD2).

[1] = Intrinsic clearance in rat liver microsomes; type: in vitro ADME; settings: pH 7.4, NADPH, read-out: Rat Microsomal Stability T½
Method: A 50 mM stock solution (in DMSO) was prepared for the compound. From the stock solution, a working solution of 0.5 mM was prepared by diluting the compound in DMSO. This concentration of working solution was prepared considering a final concentration of 1 uM with 0.1% DMSO. The compound (1 uL of working solution) was spiked in PBS with pH 7.4 (22 uL) at a concentration of 1 uM. Subsequently, 110 uL of 10 mM NADPH was added (as a co-factor). The sample was incubated at 37° C. for 15 min. Following this, pre-warmed rat liver microsomes (27.5 uL; final protein conc. 0.5 mg/mL) were added. The samples were then incubated at 37° C. Aliquots of samples were withdrawn at 0, 5, 15, 30, 45 and 60 min. The reaction was stopped by using chilled acetonitrile containing internal standard. The samples were centrifuged and the supernatants analysed by LC-MS/MS. The percent compound remaining at each time point was calculated with respect to that of the 0 min sample. The data were then analysed to calculate half-life. Note that control samples were run without NADPH and blank samples were prepared using DMSO without the test Compound.

Row | IC50 (BRD4 BD1) [nM] | Fold selectivity BRD4 BD1/BD2 (BRD4 BD2) | IC50 (BRD4 BD2) [nM] | half-life at 1 uM [1] [h] | SMILES
1 | 500 to 1000 | xxx (Fold >200) | ≤ 50 | > 1 | Cc1cccc(C)c1Oc1cn(C)c(=O)cc1-c1cn(C)c(=O)c2[nH]c(-c3cn(C(C)C)nc3C)cc12 [Example 6, 4-(5-(2,6-dimethylphenoxy)-1-methyl-2-oxo-1,2-dihydropyridin-4-yl)-2-(1-isopropyl-3-methyl-1H-pyrazol-4-yl)-6-methyl-1,6-dihydro-7H-pyrrolo[2,3-c]pyridin-7-one]
2 | > 1000 | xx (Fold >50 and ≤200) | 50 to 200 | > 1 | Cc1cccc(C)c1Oc1cn(C)c(=O)cc1-c1cn(C)c(=O)c2[nH]c(-c3ccccc3)cc12 [Example 8, 4-(5-(2,6-dimethylphenoxy)-1-methyl-2-oxo-1,2-dihydropyridin-4-yl)-6-methyl-2-phenyl-1,6-dihydro-7H-pyrrolo[2,3-c] pyridin-7-one]
3 | > 1000 | x (Fold >2 and ≤50) | 200 to 1000 | > 1 | Cc1cccc(C)c1Oc1cn(C)c(=O)cc1-c1cn(C)c(=O)c2[nH]c(-c3cccnc3)cc12 [Example 9, 4-(5-(2,6-dimethylphenoxy)-1-methyl-2-oxo-1,2-dihydropyridin-4-yl)-6-methyl-2-(pyridin-3-yi)-1,6-dihydro-7H-pyrrolo[2,3-c] pyridin-7-one.TFA]
4 | > 1000 | xxx (Fold >200) | ≤ 50 | 0.733 | Cc1cccc(C)c1Oc1cn(C)c(=O)cc1-c1cn(C)c(=O)c2[nH]c(-c3ccncc3)cc12 [Example 10, 4-(5-(2,6-dimethylphenoxy)-1-methyl-2-oxo-1,2-dihydropyridin-4-yl)-6-methyl-2-(pyridin-4-yl)-1,6-dihydro-7H-pyrrolo[2,3-c] pyridin-7-one]
5 | 500 to 1000 | xx (Fold >50 and ≤200) | ≤ 50 | > 1 | Cc1cccc(C)c1Oc1cn(C)c(=O)cc1-c1cn(C)c(=O)c2[nH]c(-c3cn(C)nc3C)cc12 [Example 12, 2-(1,3-dimethyl-1H-pyrazol-4-yl)-4-(5-(2,6-dimethylphenoxy)-1-methyl-2-oxo-1,2-dihydropyridin-4-yl)-6-methyl-1,6-dihydro-7H-pyrrolo[2,3-c] pyridin-7-one]
6 | > 1000 | xxx (Fold >200) | ≤ 50 | > 1 | Cc1cccc(C)c1Oc1cn(C)c(=O)cc1-c1cn(C)c(=O)c2[nH]c(-c3ccn(C)c3)cc12 [Example 13, 4-(5-(2,6-dimethylphenoxy)-1-methyl-2-oxo-1,2-dihydropyridin-4-yl)-6-methyl-2-(1-methyl-1H-pyrrol-3-yl)-1,6-dihydro-7H-pyrrolo[2,3-c] pyridin-7-one]
7 | > 1000 | x (Fold >2 and ≤50) | 200 to 1000 | 0.383 | Cc1ccccc1-c1cc2c(-c3cc(=O)n(C)cc3Oc3c(C)cccc3C)cn(C)c(=O)c2[nH]1 [Example 15, 4-(5-(2,6-dimethylphenoxy)-1-methyl-2-oxo-1,2-dihydropyridin-4-yl)-6-methyl-2-(o-tolyl)-1,6-dihydro-7H-pyrrolo[2,3-c] pyridin-7-one]
8 | > 1000 | xxx (Fold >200) | ≤ 50 | > 1 | Cc1ccc(F)c(-c2cc3c(-c4cc(=O)n(C)cc4Oc4c(C)cccc4C)cn(C)c(=O)c3[nH]2)c1 [Example 16, 4-(5-(2,6-dimethylphenoxy)-1-methyl-2-oxo-1,2-dihydropyridin-4-yl)-2-(2-fluoro-5-methylphenyl)-6-methyl-1,6-dihydro-7H-pyrrolo[2,3-c] pyridin-7-one]
9 | > 1000 | xx (Fold >50 and ≤200) | 50 to 200 | > 1 | Cc1ccc(F)cc1-c1cc2c(-c3cc(=O)n(C)cc3Oc3c(C)cccc3C)cn(C)c(=O)c2[nH]1 [Example 18, 4-(5-(2,6-dimethylphenoxy)-1-methyl-2-oxo-1,2-dihydropyridin-4-yl)-2-(5-fluoro-2-methylphenyl)-6-methyl-1,6-dihydro-7H-pyrrolo[2,3-c] pyridin-7-one]
10 | > 1000 | x (Fold >2 and ≤50) | 200 to 1000 | > 1 | Cc1ccc(C)c(-c2cc3c(-c4cc(=O)n(C)cc4Oc4c(C)cccc4C)cn(C)c(=O)c3[nH]2)c1 [Example 19, 4-(5-(2,6-dimethylphenoxy)-1-methyl-2-oxo-1,2-dihydropyridin-4-yl)-2-(2,5-dimethylphenyl)-6-methyl-1,6-dihydro-7H-pyrrolo[2,3-c] pyridin-7-one]
11 | > 1000 | x (Fold >2 and ≤50) | 200 to 1000 | > 1 | Cc1ccc(Cl)cc1-c1cc2c(-c3cc(=O)n(C)cc3Oc3c(C)cccc3C)cn(C)c(=O)c2[nH]1 [Example 20, 2-(5-chloro-2-methylphenyl)-4-(5-(2,6-dimethylphenoxy)-1-methyl-2-oxo-1,2-dihydropyridin-4-yl)-6-methyl-1,6-dihydro-7H-pyrrolo[2,3-c] pyridin-7-one]
12 | > 1000 | — (Fold ≥0 and ≤2) | > 1000 | > 1 | Cc1ccc(C(F)(F)F)cc1-c1cc2c(-c3cc(=O)n(C)cc3Oc3c(C)cccc3C)cn(C)c(=O)c2[nH]1 [Example 21, 4-(5-(2,6-dimethylphenoxy)-1-methyl-2-oxo-1,2-dihydropyridin-4-yl)-6-methyl-2-(2-methyl-5-(trifluoromethyl)phenyl)-1,6-dihydro-7H-pyrrolo[2,3-c] pyridin-7-one]
13 | > 1000 | xx (Fold >50 and ≤200) | 50 to 200 | > 1 | Cc1cccc(C)c1Oc1cn(C)c(=O)cc1-c1cn(C)c(=O)c2[nH]c(-c3cncnc3)cc12 [Example 22, 4-(5-(2,6-dimethylphenoxy)-1-methyl-2-oxo-1,2-dihydropyridin-4-yl)-6-methyl-2-(pyrimidin-5-yl)-1,6-dihydro-7H-pyrrolo[2,3-c] pyridin-7-one]
14 | > 1000 | x (Fold >2 and ≤50) | 200 to 1000 | > 1 | Cc1ccc(-c2cc3c(-c4cc(=O)n(C)cc4Oc4c(C)cccc4C)cn(C)c(=O)c3[nH]2)cc1 [Example 23, 4-(5-(2,6-dimethylphenoxy)-1-methyl-2-oxo-1,2-dihydropyridin-4-yl)-6-methyl-2-(p-tolyl)-1,6-dihydro-7H-pyrrolo[2,3-c] pyridin-7-one]
15 | > 1000 | x (Fold >2 and ≤50) | 200 to 1000 | > 1 | Cc1cccc(C)c1Oc1cn(C)c(=O)cc1-c1cn(C)c(=O)c2[nH]c(-c3ccc(C#N)cc3)cc12 [Example 24, 4-(4-(5-(2,6-dimethylphenoxy)-1-methyl-2-oxo-1,2-dihydropyridin-4-yl)-6-methyl-7-oxo-6,7-dihydro-1H-pyrrolo[2,3-c]pyridin-2-yl) benzonitrile]
16 | > 1000 | xxx (Fold >200) | ≤ 50 | > 1 | Cc1cccc(C)c1Oc1cn(C)c(=O)cc1-c1cn(C)c(=O)c2[nH]c(-c3ccc(F)cc3)cc12 [Example 25, 4-(5-(2,6-dimethylphenoxy)-1-methyl-2-oxo-1,2-dihydropyridin-4-yl)-2-(4-fluorophenyl)-6-methyl-1,6-dihydro-7H-pyrrolo[2,3-c] pyridin-7-one]
17 | > 1000 | xx (Fold >50 and ≤200) | ≤ 50 | > 1 | Cc1cccc(C)c1Oc1cn(C)c(=O)cc1-c1cn(C)c(=O)c2[nH]c(-c3ccc(S(C)(=O)=O)cc3)cc12 [Example 26, 4-(5-(2,6-dimethylphenoxy)-1-methyl-2-oxo-1,2-dihydropyridin-4-yl)-6-methyl-2-(4-(methylsulfonyl)phenyl)-1,6-dihydro-7H-pyrrolo[2,3-c] pyridin-7-one]
